Measured values taken from patent publication US20080119530A1, “Method for treatment and prevention of ultraviolet light induced skin pathologies” (priority 2006, published 2008).

How the values were obtained:
skin = assay: TUNEL analysis of apoptotic basal cells in UV-exposed skin; design: species or system mouse; details: 24 h after UV, in vivo
Method: Microscopy. Hematoxylin and eosin staining was performed on paraffin-embedded sections following standard protocols. Following antigen retrieval, paraffin-embedded sections were incubated with antibodies to keratin 1, keratin 6, filaggrin (all from Covance, Princeton, N.J.), or […] (R&D Systems, Minneapolis, Minn.), Alexa Fluor 488-conjugated secondary antibody (Molecular Probes), and 4′,6-diamidino-2-phenylindole (DAPI; Vector Laboratories, Burlingame, Calif.). Apoptotic cells were identified using terminal deoxynucleotidyl transferase-mediated dUTP nick end labeling (TUNEL; Promega, Madison, Wis.).
Therefore, the effect of inhibition of Erbb2 on apoptotic cell death was examined in vivo by TUNEL. The percentage of TUNEL-positive basal cells peaked at 18% in vehicle-treated skin at 24 h after UV.
It has been discovered that Erbb2 modulates the expression of genes important in both proliferation and apoptosis following UV exposure in vivo (Example 9). Accordingly, the influence of Erbb2 on both apoptosis and cell proliferation was assessed in order to determine the mechanisms of Erbb2's effect on hyperplasia in the skin after UV irradiation. Erbb2 suppresses UV-induced apoptosis in vitro, although the effect was slight (32). […]

[1] = tested on: p38 kinase, ERK1/2 and JNK1/2; assay: MAPK activity in keratinocytes; format: cell-based, mouse; details: after sham UV
Excerpt: Inactivation of Cdc25a can occur through activation of a member of the p38 MAPK signaling pathway, which is also activated by Erbb2, but this regulation of Cdc25a remains controversial (24). […] Other mechanisms for the inactivation of Cdc25a, including sequestration in the cytoplasm and phosphorylation by p38 kinase following UV exposure or osmotic shock, have been reported (25).

Erbb2 = Erbb2 expression in keratinocytes (immunoblot); format: cell-based, mouse; details: cultured keratinocytes, AG825
Excerpt: For some experiments, the epidermis was separated from the skin by the heat shock method before homogenization. Keratinocytes were lysed in the same buffer. Membranes were immunoblotted with antibodies recognizing Erbb2, phospho-Erbb2 (Tyr^1248), EGFR, phospho-EGFR (Tyr^992), phospho-EGFR (Tyr^1173), phosphotyrosine, and Tall (Calbiochem, San Diego, Calif.). Binding of horseradish peroxidase-conjugated secondary antibodies (Cell Signaling, Beverly, Mass.) was visualized using chemiluminescent reagents (Pierce, Rockford, Ill.) and autoradiography. Densitometry was performed using IDScan software (Scanalytics, Fairfax, Va.).
Cell culture. […] Keratinocytes were transfected with Erbb2-targeted siRNA (32), Stealth RNAi Negative Control LO GC (Invitrogen, Carlsbad, Calif.), Cy3-conjugated Label IT RNAi Delivery Control (Mirus, Madison, Wis.) or sham transfection with TransIT-siQUEST Transfection Reagent (Mirus, Madison, Wis.). Plasmids with Cdc25a (Hassepass et al. 2003a) and EGFP (enhanced green fluorescent protein) cDNA were cotransfected with Lipofectamine Transfection Reagent (Invitrogen, Carlsbad, Calif.). Transfection efficiency was quantified by determining the proportion of the cells that incorporated the fluorescent Cy3-conjugated siRNA or GFP one day post-transfection. […]

COc1cc(/C=C(\C#N)C(N)=O)cc(CSc2nc3ccccc3s2)c1O [AG825]
apoptotic cell death (TUNEL-positive basal cells) (skin): did not increase | p38 kinase, ERK1/2 and JNK1/2 activity [1]: decrease | expression levels of Erbb2 (Erbb2): without altering
